# Data published in patent publication US12612395B2, “Rocaglate derivatives and uses thereof” (TRUSTEES OF BOSTON UNIVERSITY, priority 2023, dated 2026).
# Like-named read-outs stand apart in the source and are kept apart here.
# How the values were obtained:
# GBM0308 non-CSCs = assay: Dose-response killing of GBM non-CSCs (PI/Hoechst, Celigo cytometer); assay type: cell-based; settings: for Non-CSCs Max. observed efficacy (% dead cells) / Emax: 72 h; for Emax / EC50: Homo sapiens; for EC50: read-out: Non-CSC EC50 (μM)
# Text: (§1) The inventors first evaluated a cohort of seven rocaglate translation inhibitors (1, 3-7, and 9, FIG. 1A and Table 1, compounds 2 and 8 were not tested due to unavailability). To assay for compounds that selectively affect GBM CSCs, the inventors employed the patient-derived tumor-initiating cell (TIC) cell line […] that forms neurospheres (consisting exclusively of tumor-initiating cells or CSCs) when cultured in neurobasal (NBE) medium. Upon exposure to serum and growth factor withdrawal, however, the cell line differentiates, acquires a flattened morphology, and forms a non-CSC population.^20 Thus, compounds can be tested in parallel to assess their effect on GBM CSCs vs. GBM non-CSCs as separate populations with a clean and robust response. This approach has been previously used to perform RNAi-based genetic screens to identify modulators of CSCs.^20 In this study, GBM0308 cells, cultured in stem cell conditions to form CSCs or in medium containing serum to induce differentiation into a non-CSC population, were treated in parallel with compounds at varying doses. Three days post-treatment, propidium iodide (PI) and Hoechst staining were performed and quantified using a Celigo image cytometer. Hoechst dye stained all […] nucleated cells, while PI exclusively stained dead cells. Cell viability and the percentage of cell death were then determined.
# (§2) Cell Culture: Glioblastoma stem cell lines GBM0308, BT145, and BT112 were cultured in neurobasal (NBE medium) containing N-2 and B-27 supplements, EGF, bFGF, L-glutamine, and Penicillin-Streptomycin), as described previously.^19 Adherent GBM cells were cultured in serum-containing DMEM media (Invitrogen) supplemented with 10% fetal bovine serum (Corning Cellgro™). Cells were incubated at 37° C. and 5% CO2 to allow neurosphere formation. For seeding and subculturing, the neurospheres were gently trypsinized with 0.025% trypsin to form a single-cell suspension.
# (§3) Dose-Response Testing in GBM Cells: Briefly, on day 1, cells were seeded in triplicate. For CSCs, 1500 cells/well were plated in a low attachment 96-well plate with NBE media and incubated for 3 days at 37° C. and 5% CO2 to allow the formation of neurospheres. For non-CSCs, 3000 cells/well were plated in a 96-well plate with DMEM media supplemented with 10% FBS. Similarly, the assay plates were also incubated for the same duration. Compound treatments started on day 4. Each compound was resuspended in DMSO and then diluted to different concentrations in media to a final concentration of DMSO less than 1%. The compounds were added at concentrations of 10, 3.3, 1.11, 0.37, 0.12, 0.041, 0.013, and 0.004 µM, respectively. DMSO-treated cells served as a control. After 72 h incubation with the compounds, fluorescent stains, propidium iodide, and Hoechst 33342 (Life Technologies, Carlsbad, CA), were used to stain the GBM cells to determine cell viability. A staining solution in 1×PBS was prepared by mixing PI and Hoechst 33342 to working concentrations of 2.5 μM and 20 μM, respectively. 20 μL of this staining solution was added per well, and plates were incubated at 37° C. and 5% CO2 for 60 min. After incubation, plates were read by Celigo imaging cytometer using an inbuilt Celigo application; Cell Viability (Dead+Total). For the viability measurement, the total number of neurospheres/cells and dead neurospheres/cells in each well were counted by the cytometer. The percentage of PI+ cells was normalized to DMSO and plotted against the drug concentration to calculate the EC50 with a four-parameter, variable-slope dose-response curve with an upper constraint of <100% dead cells and a lower constraint of =0% dead cells (GraphPad Prism v.10.0.0). For all dose response experiments, the experimental maximal efficacy (maximum observed % cell death) is reported. Relative EC50 values are reported for all compounds killing >50% of cells.
# GBM0308 CSCs = assay: Dose-response killing of GBM CSCs (PI/Hoechst, Celigo cytometer); assay type: cell-based
# Text: as §1, §2, §3
# [1] = Table 2, GBM0308 non-CSCs, highest tested concentration 10 μM
# [2] = Table 2, GBM0308 CSCs, 72 h, highest tested concentration 10 μM
# [3] = Table 2, GBM0308 CSCs, 72 h treatment, relative EC50, read-out: CSCs EC50
# [4] = read-out: Non-CSC Max. observed efficacy (% dead cells), Table 7, cell line not given
# [5] = Homo sapiens, 72 h, read-out: CSC Max. observed efficacy (% dead cells), Table 7, cell line not given
# [6] = Homo sapiens, read-out: CSC EC50 (μM), Table 7, cell line not given
# [7] = read-out: Non-CSCs Max. observed efficacy (% dead cells), Table 2, GBM0308 non-CSCs, highest tested concentration 10 μM
# [8] = Homo sapiens, 72 h, read-out: CSCs EC50 (μM), Table 2, GBM0308 CSCs, 72 h treatment, relative EC50
# [9] = Homo sapiens, 72 h, read-out: CSCs Max. observed efficacy (% dead cells), Table 2, GBM0308 CSCs, 72 h, highest tested concentration 10 μM
# [10] = Table 1, GBM0308 non-CSCs, up to 10 μM
# [11] = Table 1, GBM0308 CSCs, 72 h, up to 10 μM
# [12] = Table 1, GBM0308 CSCs, 72 h treatment, relative EC50, given for compounds causing at least 50% cell death, read-out: CSCs EC50
compound,measurement,setting,value
COc1cc(OC)c2c(c1)O[C@@]1(c3ccc(Br)cc3)[C@H](c3ccccc3)[C@@H](C(=O)O)[C@@H](O)[C@@]21O [(−)-11],Non-CSCs Max. observed efficacy (% dead cells),GBM0308 non-CSCs; [1],25%
same,CSCs Max. observed efficacy (% dead cells),GBM0308 CSCs; [2],92%
same,EC50,GBM0308 CSCs; [3],0.121 µM
"COc1cc(OC)c2c(c1)O[C@@]1(c3ccc(C#N)cc3)[C@H](c3ccccc3)[C@@H](C(=O)NS(=O)(=O)N(C)C)[C@@H](O)[C@@]21O [ZW-12-30, (1R,2R,3S,3aR,8bS)-3a-(4-cyanophenyl)-N—(N,N-dimethylsulfamoyl)-1,8b-dihydroxy-6,8-dimethoxy-3-phenyl-2,3,3a,8b-tetrahydro-1H-cyclopenta[b]benzofuran-2-carboxamide]",Emax,GBM0308 non-CSCs; [4],21%
same,Emax,GBM0308 CSCs; [5],94%
same,EC50,GBM0308 CSCs; [6],0.632 µM
"COc1cc(OC)c2c(c1)O[C@@]1(c3ccc(Br)cc3)[C@H](c3ccccc3)[C@@H](C(=O)NS(=O)(=O)N3CC(C)C3)[C@@H](O)[C@@]21O [ZW-12-36, (1R,2R,3S,3aR,8bS)-3a-(4-bromophenyl)-1,8b-dihydroxy-6,8-dimethoxy-N-((3-methylazetidin-1-yl)sulfonyl)-3-phenyl-2,3,3a,8b-tetrahydro-1H-cyclopenta[b]benzofuran-2-carboxamide]",Emax,GBM0308 non-CSCs; [4],11%
same,Emax,GBM0308 CSCs; [5],96%
same,EC50,GBM0308 CSCs; [6],0.804 µM
"COc1cc(OC)c2c(c1)O[C@@]1(c3ccc(C(F)(F)F)cc3)[C@H](c3ccccc3)[C@@H](C(=O)NS(=O)(=O)N(C)C)[C@@H](O)[C@@]21O [ZW-12-29, (1R,2R,3S,3aR,8bS)—N—(N,N-dimethylsulfamoyl)-1,8b-dihydroxy-6,8-dimethoxy-3-phenyl-3a-(4-(trifluoromethyl)phenyl)-2,3,3a,8b-tetrahydro-1H-cyclopenta[b]benzofuran-2-carboxamide]",Emax,GBM0308 non-CSCs; [4],26%
same,Emax,GBM0308 CSCs; [5],57%
same,EC50,GBM0308 CSCs; [6],5.63 µM
"COc1cc(OC)c2c(c1)O[C@@]1(c3ccc(Br)cc3)[C@H](c3ccccc3)[C@@H](C(=O)NS(C)(=O)=O)[C@@H](O)[C@@]21O [(−)-19, (1R,2R,3S,3aR,8bS)-3a-(4-bromophenyl)-1,8b-dihydroxy-6,8-dimethoxy-N-(methylsulfonyl)-3-phenyl-2,3,3a,8b-tetrahydro-1H-cyclopenta[b]benzofuran-2-carboxamide]",Emax,GBM0308 non-CSCs; [7],20%
same,EC50,GBM0308 CSCs; [8],0.095 µM
same,Emax,GBM0308 CSCs; [9],92%
same,EC50,"GBM0308 CSCs; Homo sapiens, read-out: CSC EC50, text, GBM0308 CSCs",< 0.125 µM
"COc1ccc([C@@]23Oc4cc(OC)cc(OC)c4[C@]2(O)[C@H](O)[C@H](C(=O)N(C)OC)[C@H]3c2ccccc2)cc1 (racemic) [rac-6, rohinitib, reference compound]",Non-CSCs Max. observed efficacy (% dead cells),GBM0308 non-CSCs; [10],25%
same,CSCs Max. observed efficacy (% dead cells),GBM0308 CSCs; [11],81%
same,EC50,GBM0308 CSCs; [12],0.922 µM
"COc1ccc([C@@]23Oc4cc(OC)cc(OC)c4[C@]2(O)[C@H](O)[C@H](C(=O)O)[C@H]3c2ccccc2)cc1 [(+)-10, rocaglaic acid]","cytotoxic activity against non-CSCs, in words",GBM0308 non-CSCs; GBM0308 non-CSCs,limited activity
same,Non-CSCs Max. observed efficacy (% dead cells),GBM0308 non-CSCs; [1],30%
same,"cytotoxic activity against CSCs, in words",GBM0308 CSCs; GBM0308 CSCs,limited activity
same,CSCs Max. observed efficacy (% dead cells),GBM0308 CSCs; [2],58%
same,EC50,GBM0308 CSCs; [3],7.08 µM
"COC(=O)[C@H]1[C@@H](O)[C@@]2(O)c3c(OC)cc(OC)cc3O[C@@]2(c2ccc(Br)cc2)[C@@H]1c1ccccc1 [(−)-9, reference compound]",Non-CSCs Max. observed efficacy (% dead cells),GBM0308 non-CSCs; [10],25%
same,CSCs Max. observed efficacy (% dead cells),GBM0308 CSCs; [11],88%
same,EC50,GBM0308 CSCs; [12],0.151 µM
"aglaroxin C [rac-4, reference compound]",Non-CSCs Max. observed efficacy (% dead cells),GBM0308 non-CSCs; [10],26%
same,CSCs Max. observed efficacy (% dead cells),GBM0308 CSCs; [11],42%
same,CSCs Max. observed efficacy (% dead cells),"GBM0308 CSCs; Table 1, GBM0308 CSCs, 72 h, up to 10 μM, listed as 4",≤ 50%
"COc1cc(OC)c2c(c1)O[C@@]1(c3ccc(Br)cc3)[C@H](c3ccccc3)[C@@H](C(=O)NS(=O)(=O)N3CCOCC3)[C@@H](O)[C@@]21O [ZW-12-38, (1R,2R,3S,3aR,8bS)-3a-(4-bromophenyl)-1,8b-dihydroxy-6,8-dimethoxy-N-(morpholinosulfonyl)-3-phenyl-2,3,3a,8b-tetrahydro-1H-cyclopenta[b]benzofuran-2-carboxamide]",Emax,GBM0308 non-CSCs; [4],19%
same,EC50,GBM0308 non-CSCs,0.463 µM
same,Emax,GBM0308 CSCs; [5],95%
same,EC50,GBM0308 CSCs; [6],0.7 µM
"COc1ccc([C@@]23Oc4cc(OC)cc(OC)c4[C@]2(O)[C@H](O)[C@H](C(=O)NS(C)(=O)=O)[C@H]3c2ccccc2)cc1 [(−)-15, (1R,2R,3S,3aR,8bS)-1,8b-dihydroxy-6,8-dimethoxy-3a-(4-methoxyphenyl)-N-(methylsulfonyl)-3-phenyl-2,3,3a,8b-tetrahydro-1H-cyclopenta[b]benzofuran-2-carboxamide]",Emax,GBM0308 non-CSCs; [7],19%
same,EC50,GBM0308 CSCs; [8],1 to 10 µM
same,Emax,GBM0308 CSCs; [9],85%
same,EC50,"GBM0308 CSCs; read-out: CSCs EC50, Table 2, GBM0308 CSCs, 72 h treatment, relative EC50",0.98 µM
"COc1ccc([C@@]23Oc4cc(OC)cc(OC)c4[C@]2(O)[C@H](O)[C@H](C(=O)O)[C@H]3c2ccccc2)cc1 [(−)-10, rocaglaic acid]",Non-CSCs Max. observed efficacy (% dead cells),GBM0308 non-CSCs; [1],27%
same,CSCs Max. observed efficacy (% dead cells),GBM0308 CSCs; [2],68%
"COc1cc(OC)c2c(c1)O[C@@]1(c3ccc(Br)cc3)[C@H](c3ccccc3)[C@@H](C(=O)NS(=O)(=O)N(C)C(C)C)[C@@H](O)[C@@]21O [ZW-12-34, (1R,2R,3S,3aR,8bS)-3a-(4-bromophenyl)-1,8b-dihydroxy-N—(N-isopropyl-N-methylsulfamoyl)-6,8-dimethoxy-3-phenyl-2,3,3a,8b-tetrahydro-1H-cyclopenta[b]benzofuran-2-carboxamide]",Emax,GBM0308 non-CSCs; [4],18%
same,Emax,GBM0308 CSCs; [5],79%
same,EC50,GBM0308 CSCs; [6],1.85 µM
"C#CCNS(=O)(=O)NC(=O)[C@H]1[C@@H](O)[C@@]2(O)c3c(OC)cc(OC)cc3O[C@@]2(c2ccc(Br)cc2)[C@@H]1c1ccccc1 [(−)-21, (1R,2R,3S,3aR,8bS)-3a-(4-bromophenyl)-1,8b-dihydroxy-6,8-dimethoxy-3-phenyl-N—(N-(prop-2-yn-1-yl)sulfamoyl)-2,3,3a,8b-tetrahydro-1H-cyclopenta[b]benzofuran-2-carboxamide]",Emax,GBM0308 non-CSCs; [7],27%
same,EC50,GBM0308 CSCs; [8],0.016 µM
same,Emax,GBM0308 CSCs; [9],92%
"COc1cc(OC)c2c(c1)O[C@@]1(c3ccc(Br)cc3)[C@H](c3ccccc3)[C@@H](C(=O)NS(=O)(=O)N3CCCC3)[C@@H](O)[C@@]21O [ZW-12-37, (1R,2R,3S,3aR,8bS)-3a-(4-bromophenyl)-1,8b-dihydroxy-6,8-dimethoxy-3-phenyl-N-(pyrrolidin-1-ylsulfonyl)-2,3,3a,8b-tetrahydro-1H-cyclopenta[b]benzofuran-2-carboxamide]",Emax,GBM0308 non-CSCs; [4],25%
same,EC50,GBM0308 non-CSCs,0.401 µM
same,Emax,GBM0308 CSCs; [5],95%
same,EC50,GBM0308 CSCs; [6],0.7 µM
